Results from patent US10232043B2, “Photoactivated molecules for light-induced modulation of the activity of electrically excitable cells and methods of using the same” (UNIVERSITY OF SOUTHERN CALIFORNIA, priority 2015, dated 2019).
Entries after “also recorded” stand apart in the source; their conditions may differ.

Experiments:
[1] = target: Nav1.6 (Homo sapiens, UniProt Q9UQD0); conditions: extracellular loop S1-S2 and S3-S4 in domain II; cited from earlier work
[2] = test system: chromaffin cells; experiment: Cell-attached patch test for membrane perforation; assay type: cell-based, mouse; conditions: in patch pipette, RubpyC17 18 μM, 10 min, amphotericin B within 5 min
From the text: FIGS. 21A-21H depict data from various experiments related to characteristics of RubpyC17-loaded cells. […] Inset images shown to the right of trace confirmed proper integration of RubpyC17 in patched cells. FIGS. 21C-21E show the light-induced action potential firing in chromaffin cells was not due to biophysical changes in voltage-gated ion channels as there were no significant changes in current-voltage relationships (21C-21D) nor in steady-state activation curve (21E) in RubpyC17-loaded chromaffin cells before (open circle) or during (open circle) light illumination. […] Peak inward currents from each stimulation jump were plotted against corresponding stimulating voltages (n=6). […] Data from representative cell is shown (n=5). […] Currents resulting from capacitor-like behavior of chromaffin cell membranes during hyperpolarizing jumps to −85 mV from a resting membrane potential of −80 mV were recorded 5 min following giga-seal formation for amphoterecin B (bottom trace) or 10 min following giga-seal formation for RubpyC17 (top trace).
Finally, to test whether illumination of RubpyC17 incorporated in cell membranes causes nonspecific membrane poration or other damage, 18 μM RubpyC17 was loaded inside a patch pipette and attached to a cell (gigaseal formation) in the cell-attached configuration. This is the same configuration used routinely for perforated-patch recording. […]

[3] = test system: HEK cells; experiment: Membrane incorporation of Rubpy-C17 analogues; assay type: cell-based; conditions: FIGS. 6A-6C, 7A-7B
From the text: In some examples, RubpyC17 can be changed to provide a non-toxic, faster, and highly reversible system that imparts light sensitivity in multiple biological systems. In some embodiments, changing of bipyridine substituents (as shown in as illustrated in FIG. 3) can result in a Ru^3+/2+ reduction potential dynamic range of several hundred millivolts. […] In some examples, the carboxylic acid substituents probe the mechanistic role of charge in the photovoltaic nanoswitch system in addition to the role of the reduction potential. FIGS. 5A-5D illustrates an embodiment of various substituents in place of RubpyC17 in HEK cells. For example, FIG. 5A illustrates TMbpyRubpyC17(PF6) substituted for RubpyC17; FIG. 5B illustrates TMbpyRubpyC17(Cl) substituted for RubpyC17; FIG. 5C illustrates COOHbpyRubpyC17(Na) substituted for RubpyC17; and FIG. 5C illustrates COOHbpyRubpyC17(tBu4N+) substituted for RubpyC17.
In some examples, the RubpyC17 molecule can be configured for non-specific targeting and optimized membrane incorporation of photoactive molecular artificial retinas (“MARs”).
In some embodiments, membrane incorporation can be an important characteristic of the current system. In some embodiments, changing the counter ion identity of Rubpy-C17 can help to change membrane incorporation properties. […] FIG. 7C illustrates the effect that a treatment of 1 μM of Rubpy-Oleic Acid has on HEK cells while FIG. 7D illustrates the effect that a treatment of 10 μM of Rubpy-Linoleic Acid has on HEK cells.

[4] = Time-resolved luminescence and electron transfer of D-B-A complex; assay type: physicochemical; conditions: degassed dichloromethane, excited at 355 nm, monitored at 560 nm
Description: Time-resolved emission spectroscopy was used to characterize the MLCT excited state of the D-B-A complex (see FIGS. 24A and 24B). Luminescence decay kinetics were recorded in degassed dichloromethane. The D-B-A complex was excited at 355 nm with an 8-ns laser pulse and luminescence was monitored at 560 nm. […] For comparison, the MLCT lifetime of the reference complex, [Re(CO)3(bpy)(py)]+, determined under identical experimental conditions, is 550 ns.
Self-association often leads to enhanced quenching, due to the formation of aggregates with short intermolecular donor-acceptor distances.
While the rate of intramolecular electron transfer is concentration independent, intermolecular quenching processes vary predictably with concentration. As such, it is possible to separate the two quenching mechanisms and obtain rate constants for each. Time-resolved luminescence measurements at a series of D-B-A concentrations allow a second order intermolecular quenching rate to be determined. As the concentration was increased, shorter lifetimes were recorded in both dichloromethane and acetonitrile. […]
Intramolecular electron transfer may also proceed through a through-space coupling mechanism. […] If β values in this range are used, the through-solvent intramolecular electron transfer rate is predicted to fall between 10^4 and 10^6 s^−1, which is competitive with calculated through-bond tunneling rates.

[5] = test system: HEK293T cells; experiment: Effect of PF6:Cl counter ion ratio of Rubpy-C17 on HEK293T cells; assay type: cell-based; conditions: for membrane incorporation: 10 minutes; for Comments (compound stability): degradation seen after two months
Description: In some embodiments, the 20 mg of Rubpy-C17 is stored in −20° C. with desiccant in the dark. […] 253 μl of DMSO is then added into the original bottle containing Rubpy-C17 to make 100 mM stock solution. In some embodiments, the stock solution is aliquot and stored in −20° C. with desiccant in the dark.
In some examples, on the day before or on, the same day of the experiment, the following 2.5 mM external solution is prepared using the following steps. The external solution is warmed up to 37° C. For […] of the external solution, 0.176 grams of absorbic acid was added. Another 240 μL 5M NaOH was added to adjust the pH to between about 7.2-7.4. The absorbic solution can then be filtered through a 0.2 μm filter. The solution is then stored in the dark in 4° C. In some examples, the solution must be used within one week.
The 100 mM of Rubpy solution is first thawed from −20° C. 100 mM Rubpy is then diluted to 10 mM Rubpy: 2 μL 100 mM Rubpy+18 μL DMSO. In some examples, this is vortexted to mix and then centrifuged down with a small bench-top. The culture, medium is aspirated and the cells are rinsed with external solution several times. The external solution can then be aspirated. In some examples, enough of the external solution is left on the cells to prevent it from drying. 500 μL of external solution with 2.5 mM of ascorbic acid can then be added.
In some examples, 1 μL of 10 mM of Rubpy to […] of external solution with 2.5 mM ascorbic acid and mixed well. This should produce a final concentration of 10 μM of Rubpy with 0.1% DMSO. This mixed solution is then added to the above referenced cells and incubated for 10 minutes.
The solution can then be aspirated from the plate and rinsed with regular external solution several times. 2 mL of external solution is added to 2.5 mM ascorbic acid for recording. For each plate, a baseline control is taken by recording the first cell before performing any light-stimulating protocol. The light-stimulus can include 10-40 s in duration and bandpassed at 455-495 nm (blue light).
As discussed above, the mixture a 10 μM of RubpyC17 solution was placed in 10 HEK293T cells.

Chain of Nav1.6 (Q9UQD0 whole entry, the tested form may be a part): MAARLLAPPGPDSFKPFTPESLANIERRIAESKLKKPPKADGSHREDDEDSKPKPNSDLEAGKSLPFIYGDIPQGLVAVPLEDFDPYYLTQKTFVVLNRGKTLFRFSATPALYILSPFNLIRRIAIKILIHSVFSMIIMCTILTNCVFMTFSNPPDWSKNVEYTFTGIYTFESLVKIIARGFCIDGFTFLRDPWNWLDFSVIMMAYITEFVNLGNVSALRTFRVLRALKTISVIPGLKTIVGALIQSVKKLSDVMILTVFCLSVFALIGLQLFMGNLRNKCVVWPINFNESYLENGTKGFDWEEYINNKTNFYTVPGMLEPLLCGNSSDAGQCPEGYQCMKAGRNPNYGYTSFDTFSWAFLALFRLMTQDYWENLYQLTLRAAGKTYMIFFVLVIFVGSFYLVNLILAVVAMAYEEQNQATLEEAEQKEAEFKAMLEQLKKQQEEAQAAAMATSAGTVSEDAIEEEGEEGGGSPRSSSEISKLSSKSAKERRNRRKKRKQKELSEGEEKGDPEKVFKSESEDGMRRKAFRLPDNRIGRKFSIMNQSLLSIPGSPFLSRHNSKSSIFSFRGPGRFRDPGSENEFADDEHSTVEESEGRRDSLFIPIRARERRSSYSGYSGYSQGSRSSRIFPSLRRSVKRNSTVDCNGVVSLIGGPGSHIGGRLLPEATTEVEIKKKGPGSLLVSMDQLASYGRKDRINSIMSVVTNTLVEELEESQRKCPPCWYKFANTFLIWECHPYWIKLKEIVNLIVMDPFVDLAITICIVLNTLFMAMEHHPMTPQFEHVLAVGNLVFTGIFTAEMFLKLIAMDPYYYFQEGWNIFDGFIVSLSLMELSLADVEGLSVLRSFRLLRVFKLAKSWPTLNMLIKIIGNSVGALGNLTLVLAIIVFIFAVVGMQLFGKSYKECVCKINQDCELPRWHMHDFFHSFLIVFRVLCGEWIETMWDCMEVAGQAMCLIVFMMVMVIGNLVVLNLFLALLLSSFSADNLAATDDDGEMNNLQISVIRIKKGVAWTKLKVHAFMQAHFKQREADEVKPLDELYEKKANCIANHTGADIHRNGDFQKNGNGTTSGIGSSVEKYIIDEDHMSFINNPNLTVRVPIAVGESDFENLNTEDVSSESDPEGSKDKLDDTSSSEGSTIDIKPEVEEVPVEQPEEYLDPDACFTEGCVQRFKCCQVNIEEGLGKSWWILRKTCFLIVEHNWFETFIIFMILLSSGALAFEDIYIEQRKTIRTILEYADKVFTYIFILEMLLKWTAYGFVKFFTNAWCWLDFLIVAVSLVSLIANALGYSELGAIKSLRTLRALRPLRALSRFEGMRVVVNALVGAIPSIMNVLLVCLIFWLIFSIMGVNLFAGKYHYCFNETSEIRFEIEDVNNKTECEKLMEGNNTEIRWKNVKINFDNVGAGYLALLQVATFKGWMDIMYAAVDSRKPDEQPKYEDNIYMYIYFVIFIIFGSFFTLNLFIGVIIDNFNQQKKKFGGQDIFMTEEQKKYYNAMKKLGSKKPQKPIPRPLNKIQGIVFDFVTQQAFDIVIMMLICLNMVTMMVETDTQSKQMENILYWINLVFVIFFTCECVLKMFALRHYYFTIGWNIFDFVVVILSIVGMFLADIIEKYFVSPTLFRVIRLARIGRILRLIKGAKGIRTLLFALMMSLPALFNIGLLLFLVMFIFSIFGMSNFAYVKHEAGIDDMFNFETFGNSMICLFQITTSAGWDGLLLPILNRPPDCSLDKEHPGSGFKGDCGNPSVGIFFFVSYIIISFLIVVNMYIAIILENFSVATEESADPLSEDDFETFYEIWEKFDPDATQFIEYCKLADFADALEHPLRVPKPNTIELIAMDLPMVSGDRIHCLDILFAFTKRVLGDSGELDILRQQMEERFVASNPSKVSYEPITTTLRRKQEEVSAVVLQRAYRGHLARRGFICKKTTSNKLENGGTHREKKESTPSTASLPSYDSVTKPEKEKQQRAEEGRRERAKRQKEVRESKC

## CssII
[1]
  binding affinity: nanomolar affinity

## C[C@@H]1[C@H](O)[C@@H](C)/C=C/C=C/C=C/C=C/C=C/C=C/C=C/[C@H](O[C@@H]2O[C@H](C)[C@@H](O)[C@H](N)[C@@H]2O)C[C@@H]2O[C@](O)(C[C@@H](O)C[C@@H](O)[C@H](O)CC[C@@H](O)C[C@@H](O)CC(=O)O[C@H]1C)C[C@H](O)[C@H]2C(=O)O [amphotericin B, reference compound]
[2]
  capacitive charging transient (membrane perforation): sizable capacitive charging transient

## CCCCCCCC/C=C\CCCCCCCC(=O)Nc1cc2cccnc2c2ncccc12.[Ru+2].c1ccc(-c2ccccn2)nc1.c1ccc(-c2ccccn2)nc1 [Ruphen-C18:1]
[3]
  membrane incorporation: exceptional membrane incorporation; also recorded: excellent membrane incorporation

## [C-]#[O+].[C-]#[O+].[C-]#[O+].[Re+].c1ccc(-c2ccccn2)nc1.c1ccncc1 [[Re(CO)3(bpy)(py)]+]
[4]
  luminescence (MLCT) lifetime: 550 ns

## CCCCCCCCCCCCCCCCCc1ccnc(-c2cc(C)ccn2)c1.[Cl-].[Cl-].[Ru+2].c1ccc(-c2ccccn2)nc1.c1ccc(-c2ccccn2)nc1 [PF6:Cl 0:1]
[5]; 10 μM, HEK293T cells
  Cell Death: cell death was observed
  membrane incorporation: even incorporation
[5]; 10 μM, HEK293T cells, listed as Rubpy-C17 with only CL Counter ions
  membrane incorporation: good membrane incorporation was initially observed
[5]
  Comments (compound stability): subsequent degradation was observed after two months; also recorded: Unstable,
[5]; listed as Rubpy-C17 with only CL Counter ions
  Comments (compound stability): compound degradation was seen subsequently after two months
[3]
  membrane incorporation: exceptional membrane incorporation

## CCCCC/C=C\C/C=C\CCCCCCCC(=O)Nc1cc2cccnc2c2ncccc12.[Ru+2].c1ccc(-c2ccccn2)nc1.c1ccc(-c2ccccn2)nc1 [Ruphen-C18:2]
[3]
  membrane incorporation: excellent membrane incorporation

## CCCCCCCCCCCCCCCCCc1ccnc(-c2cc(C)ccn2)c1.Cc1cnc(-c2cc(C)c(C)cn2)cc1C.Cc1cnc(-c2cc(C)c(C)cn2)cc1C.[Ru+2] [tetramethyl-substituted bpy Rubpy-C17]
[3]
  membrane incorporation: does not evenly incorporate
